Source: publication PMC11769286, “Nanoformulation of Polymyxin E Through Complex Coacervation: A Pharmacokinetic Analysis” (Pharmaceutics, 2025)
In brackets after ≈: the same amount, converted by molar mass. Positions of bridges follow the written chain, without caps; N, C: chain ends. Non-standard residues stand in square brackets, D forms with d. Residues, ends and D or L forms follow the SMILES beside them. *: point of attachment. Heptanoyl(5-Me) = CCC(C)CCCC(=O)*; Dab = NCC[C@H](N)C(=O)O

What was measured:
Acinetobacter baumannii = type: cell-based
Text: (§1) In line with the 2021 edition of the United States Clinical and Laboratory Standards Institute (CLSI) guidelines (https://clsi.org/), we employed the broth microdilution method to determine the MIC of the compounds against clinical Gram-negative bacilli. We tested 23 strains of Escherichia coli, including 12 carbapenem-sensitive and 11 drug-resistant strains, and 22 strains of Klebsiella pneumoniae, including 12 carbapenem-sensitive and 10 drug-resistant strains. Additionally, we assessed 20 strains of Acinetobacter baumannii, again including 10 carbapenem-sensitive and 10 drug-resistant strains, and 21 strains of Pseudomonas aeruginosa. Quality control strains used were Escherichia coli ATCC 25922 and Pseudomonas aeruginosa ATCC 27853 [20]. For the preparation of antimicrobial agents, we dissolved seven batches of the test drug in 3 mL of water and subsequently diluted it to a concentration of 500 mg/L. The control drug was prepared according to CLSI requirements. The antibacterial solutions were tested over a concentration range spanning from 0.015 mg/L to 32 mg/L. We utilized cation-adjusted Mueller–Hinton broth (CAMHB) from BD Company, with lot number 9324795.
(§2) Regarding bacterial inoculation, we selected fresh, pure bacterial colonies from Columbia blood agar using the direct colony suspension method, resulting in a turbidity of 0.5 McFarland units. This suspension was then appropriately diluted, yielding a final bacterial concentration of 10^5 CFU/mL. Culturing conditions involved incubation in ambient air at 35 ± 2 °C for a duration of 16–20 h. Results were interpreted in accordance with the European EUCAST breakpoint criteria, where PME sensitivity was defined as ≤2 mg/L and resistance as ≥4 mg/L. Criteria for assessing other tested drugs were provided by the party commissioning the study. The MIC value represented the minimum drug concentration necessary to inhibit bacterial growth. Data analysis was performed using WHONET 5.6 software for statistical evaluation of the drug susceptibility test results.

Klebsiella pneumoniae = type: cell-based
Text: as §1, §2

CD-1 mice = assay: Determination of maximum tolerated dose (MTD); type: in vivo; conditions: male CD-1 mice, n = 3, tail vein, BID (q8h)
Protocol: CD-1 mice, male, 7–8 weeks old, weighing 25–30 g, were purchased from Shanghai Lingchang Laboratory Animal Co. The mice were grouped into n = 3, and different doses of PME were injected into the tail vein of mice via BID (q8h). HA2 prescription (HA2-2.6, HA2-2 and HA2-1.5) and SOP prescription (SOP-2.6, SOP-2 and SOP-1.5) were used for MTD examination.

[1] = parameters: species or system SD rats; conditions: rat, in vivo, iv
[2] = test system: A. Baumannii ATCC BAA-1605; conditions: 8 mpk BID q12h, tail vein; 24 h after infection
Protocol: CD-1 mice (SPF grade, female, 7 weeks old, 27–29 g) were provided by Zhejiang Weitong Lihua Laboratory Animal Technology Co., Ltd. A. Baumannii ATCC BAA-1605 was provided by Nantong Wuxi Apptec Medical Technology Co., Ltd. (Nanjing, China). Experimental animals were admitted to Wuxi AppTec BSL-2 animal facility and subjected to an adaptation period of at least 3 to 4 days. Immunosuppressed mice with neutrophil deficiency were prepared by intraperitoneal injection of cyclophosphamide (150 mg/kg at day -4; 100 mg/kg at day -1). On day 0, the infected bacterial solution was inoculated by intramuscular injection, and 0.1 mL of the bacterial solution was inoculated into the right thigh of each mouse. At 2 h and 24 h after infection, the PME formulations were administered by tail vein according to the experimental protocol. Animals in the blank group were euthanized 2 h after infection. The right thighs of those mice were collected and homogenized. The diluent was cultured overnight and CFUs were counted the next day. Animals in the negative control group and other treatment groups were euthanized 24 h after infection. […] The diluent was cultured overnight and CFUs were counted the next day. […]
The dosages were calculated based on the weight of the mice, and different dosage levels were achieved by adjusting the drug volume accordingly.

[3] = rat, in vivo
in vivo = conditions: SD, rat

## CCC(C)CCCC(=O)N[C@@H](CCN)C(=O)N[C@H](C(=O)N[C@@H](CCN)C(=O)N[C@H]1CCNC(=O)[C@H]([C@@H](C)O)NC(=O)[C@H](CCN)NC(=O)[C@H](CCN)NC(=O)[C@H](CC(C)C)NC(=O)[C@@H](CC(C)C)NC(=O)[C@H](CCN)NC1=O)[C@@H](C)O (stereo partly drawn) ({Heptanoyl(5-Me)}-[Dab]T[Dab][Dab][Dab][dL]L[Dab][Dab]T; lactam 4-C)
Acinetobacter baumannii
  MIC50: 0.5 µg/mL (≈ 0.433 µM)
  MIC range: 0.5 to 1 µg/mL
Klebsiella pneumoniae
  MIC50: 0.5 µg/mL (≈ 0.433 µM)
CD-1 mice
  MTD / tolerated dose: 10 mpk
[1]
  gastric mucosal bleeding: showed gastric mucosal bleeding
[2]
  change of bacterial levels: did not increase bacterial levels
[3]
  intersection point between distribution phase and elimination phase: 0.5 h
In vivo
  AUC(0-inf): 12300 ± 2120 ng·h/mL
  Cmax: 10300 ± 1780 ng/mL
  MRT: 1.63 ± 0.15 h
  Tmax: 4.8 min
  Vd: 0.404 ± 0.0545 L/kg
  clearance: 4.16 ± 0.78 mL/min/kg
  half-life: 1.33 ± 0.05 h
